Measured values: US7723289B2, “PIF tetrapeptides” (BioIncept, LLC, priority 2003, dated 2010)
Like-named read-outs stand apart in the source and are kept apart here.

Key:
PBMC = experiment: FITC-labeled PIF binding to PBMC subpopulations (flow cytometry); parameters: species or system human
Description: Expression of PIF-1(15) (SEQ ID NO:1), receptor following PHA induced PBMC proliferation CD-4 T cells; CD-8 T cells; NK cell and B cells (unstimulated-top); (PHA stimulated-bottom). Flow cytometry analysis of PBMC following exposure to FITC sPIF-1(15) (SEQ ID NO:13) % expression was determined in PBMC subtypes before and after exposure to 1 ug/ml PHA for 24 hours.
Human PBMC were isolated by the Ficoll method. FITC-labeled nPIF-115 (SEQ ID NO: 1) and (FITC)-labeled scrPIF-1 (SEQ ID NO:5) and match-size irrelevant peptide (FITC)-labeled negative controls negPIF-1(15) (SEQ ID NO:11), were dissolved in PBS at concentrations ranging from 0.75 to 48.19 μM, and were incubated with 500,000 lymphocytes for 1 h at room temperature. The cells were washed 6 times with PBS and resuspended in 500 μl of the same buffer. T-cells and monocytes identification was performed in independent experiments by incubation with anti-CD3 and anti-CD14 antibody-phycoerithryn (PE) labeled. nPIF-115 (SEQ ID NO: 1) binding to PBMC was determined by flow cytometry. In addition, rosettes formed by T cell-platelets were detected by flow cytometry using anti-CD3 antibody-PE and anti-CD41a antibody-FITC (all antibodies were from Pharmingen Inc.).
Using flow cytometry fluoroscein-labeled sPIF-115 (SEQ ID NO: 13) binding to immune cells was examined on resting PBMC.

human lymphocytes = test system: human lymphocytes
Description: Human PBMC were isolated and cultured for 2-4 days in AIM-V medium containing 0 to 200 nM of sPIF-115 (SEQ ID NO:13) or scrPIF-115 (SEQ ID NO:5). The following proliferation-activating agents were used: anti-CD3 antibody (10 μg/ml solution) bound on the plate wells in the presence or absence of IL-2 at 10 μg/ml; phytohemmaglutinin (PHA) at 4 μg/ml. The effects of sPIF-115 (SEQ ID NO:13) or scrPIF-115 (SEQ ID NO:5) peptides were also determined by the mixed lymphocyte reaction (MLR) after 3 days in heterologous cultures of PBMC with cells previously treated with mitomycin C (100 μg/ml for 4 h). Cell proliferation was determined by tritiated thymidine incorporation (16 h) of 72-h culture. Cytokine release (IL-4, IL-10, IFN-γ and TNF-α) into culture supernatants was determined at 72 h of culture by ELISA (R&D System).

mice = experiment: Subcutaneous osmotic mini-pump administration in mated mice, implantation sites; format: in vivo
Description: Preliminary in vivo assessment of PIF-1 antagonist by using PIF1scr/amide was performed. […] Following the protocol below: (Dr Hoberman, Argus, Inc) PIF-1scr/amide was introduced two days after estrus to mice through an osmotic mini-pump (Alzet Model 2001; 1 ul/hr for 7 days) containing either 0.9% saline or 150 ug or 800 ug PIF-1scr/amide/day release in saline. The pumps were inserted subcutaneously under ketamine/xylazine anesthesia. Female mice were placed with male mice on the third day afternoon of the expected estrus. Four different groups 5 each were studied, low and high dose PIF-1scr/amide, saline control, and one group with PIF-1. Mating was confirmed by the presence of sperm in the vagina or a copulatory plug the next morning. Pregnancy (or lack thereof) was determined by sacrificing on day 10 after breeding and the uterine horns were examined for implantation sites by using Chicago Blue solution.
The group treated with PIF-1 160 ug/kg/day appeared to have increased number of implantation sites and this was associated with a higher rate of fetal survival compared to vehicle treated controls.

[1] = PBMC within 24 hrs of PHA activation
[2] = 160 ug/kg/day, compared to vehicle treated controls

MVRIKPGSANKPSDD [sPIF-1(15)]
fluorescence-labeled peptide binding to human lymphocytes (PBMC; FIG. 1(A)): dose dependent manner | B cells positive for fluorescent PIF binding (PBMC; [1]): > 90% | T lymphocytes positive for fluorescent PIF binding (PBMC; [1]): 60-80% | binding to platelets (PBMC; basal state): not to platelets | binding to monocytes (PBMC; basal state, unstimulated PBMC): binds all monocytes | binding to NK cells (PBMC; even after several days in culture with PHA): did not appear to bind | binding site expression on resting T cells (CD4+, CD8+), B cells (CD19+), NK cells (CD56) (PBMC; resting PBMC): very low | concentration at which lower rates of lymphocyte proliferation was found (human lymphocytes; MLR): 1 nM | concentration at which lower rates of lymphocyte proliferation was found (human lymphocytes; PHA stimulated): 250 nM | concentration at which lower rates of lymphocyte proliferation was found (human lymphocytes; anti-CD3 antibody stimulated): 62.5 nM | number of implantation sites (mice; [2]): increased | rate of fetal survival (mice; [2]): higher rate | effect on maternal body weights (mice; all tested groups): no effect | effect on mouse fetuses number (mice; early pregnancy): no significant effect | toxic effects following administration in early pregnancy (mice; pregnant mice): no toxic effects
